“Also recorded” adds a separate entry of the source. Where two headings read alike, the source gives them in different places.
Experiments:
[1] = Active (metal-based, citrate or ionophore) loading of drug into liposomes; spin column, drug-to-lipid ratio; format: physicochemical
[2] = as above; format: physicochemical; remark: listed apart in the source
Procedure: Lipids were dissolved in chloroform solution and subsequently dried under a stream of nitrogen gas and placed in a vacuum pump to remove solvent. Unless otherwise specified, trace levels of radioactive lipid 3H-CHE were added to quantify lipid during the formulation process. The resulting lipid film was placed under high vacuum for a minimum of 2 hours. The lipid film was hydrated in the solution indicated to form multilamellar vesicles (MLVs). The resulting preparation was extruded 10 times through stacked polycarbonate filters with an extrusion apparatus (Lipex Biomembranes, Vancouver, BC) to achieve a mean liposome size between 80 and 150 nm. All constituent lipids of liposomes are reported in mole %.
At various time points after initiation of drug loading, aliquots were removed and passed through a Sephadex G-50 spin column to separate free from encapsulated drug. To a specified volume of eluant, Triton X-100 or N-ocyl beta-D-glucopyranoside (OGP) was added to solubilize the liposomes. Following addition of detergent, the mixture was heated to the cloud point of the detergent and allowed to cool to room temperature before measurement of the absorbance or fluorescence. Drug concentrations were calculated by comparison to a standard curve.
In order to determine whether copper loading of irinotecan in the absence of a pH gradient could occur using a cholesterol-free formulation, DSPC/DSPG (80:20 mole ratio) liposomes containing copper(II) gluconate were prepared with an external and internal pH of 7.4. […] The lipid films were hydrated in 100 mM Cu(II) gluconate adjusted to pH 7.4 with triethanolamine (TEA) and extruded at 70° C. […] Irinotecan was added to the liposome preparation at a 0.1:1 drug-to-lipid mole ratio and incubated at 50° C. The extent of drug loading was determined as described in the methods by measuring absorbance at 370 nm and lipid levels were determined by liquid scintillation counting.
Loading of daunorubicin into DSPC/DSPG (90:10 mole ratio) liposomes containing encapsulated CuSO4 buffered to pH 7.4 was also investigated. […] A solution of 150 mM CuSO4, 20 mM histidine (adjusted to pH 7.4 using TEA), was employed as the hydration medium and MLVs were extruded at 70° C. […] Daunorubicin was loaded at a 0.1:1 drug/lipid weight ratio. A drug-to-lipid ratio at various time points during loading was determined by measuring absorbance at 480 nm after solubilization in detergent to quantify daunorubicin as described; lipid levels were determined by liquid scintillation counting.
The liposomes were prepared as described in the methods by hydrating lipid films in a solution of 100 mM copper(II) gluconate adjusted to pH 7.4 with TEA. Liposomes were extruded at 65° C. and the external buffer of the liposomes was exchanged to SHE, pH 7.4 by tangential flow dialysis. Liposomes were incubated with irinotecan at a 0.1:1 drug-to-lipid weight ratio at 50° C. and the extent of drug loading was determined as described by measuring absorbance at 370 nm after solubilization by detergent.
In addition to copper loading, loading of drug using MnSO4 containing liposomes in the absence of a pH gradient was also investigated. […] Lipids films were prepared as described and hydrated in 300 mM MnSO4 buffered to pH 7.4 with 20 mM imidazole (initial pH was adjusted to 7.4 with concentrated HCl) and extrusion was carried out at 70° C. The samples were run down a Sephadex G-50 column to exchange the exterior buffer with SHE, pH 7.4.

[3] = Plasma drug-to-lipid ratio 24 hours after intravenous administration of daunorubicin liposomes; format: in vivo; details: DSPC/DSPE-PEG2000 (95:5) liposomes with citrate pH 4.0, CuSO4 or MnSO4; Balb/c mice, lipid 100 mg/kg, daunorubicin 10 mg/kg
Procedure: DSPC/DSPE-PEG2000 liposomes were prepared as described and extruded at 75° C. The external solution was exchanged to HBS by dialysis against HBS. […] Plasma lipid concentrations were determined by liquid scintillation counting. […] The resulting mixture was mixed and 2 mL of 1:1 isopropanol/chloroform was added followed by vortexing. The samples were frozen at −20° C. overnight or −80° C. for 1 hour to promote protein aggregation, brought to room temperature, vortexed and centrifuged at 3000 rpm for 10 minutes.

For `COc1cccc2c1C(=O)c1c(O)c3c(c(O)c1C2=O)C[C@@](O)(C(C)=O)C[C@@H]3O[C@H]1C[C@H](N)[C@H](O)[C@H](C)O1` [daunorubicin], the drug encapsulation [1] was 80%, the encapsulation [1] was greater than 95% and the added drug encapsulated [2] was greater than 90%. The “encapsulation compared to CuCl2 (in words)” value [2] was “not as efficient”, the “loading (in words)” value [2] was “most efficient; also recorded: occurred to a lesser extent; also recorded: less efficient” and the “daunorubicin to lipid ratio achieved” value ([2]; DSPC/DSPE-PEG2000 (95:5), 300 mM MnSO4, loading temperature 60° C.) was 0.07 mol:mol. The drug encapsulation ([2]; DSPC/DSPE-PEG2000 (95:5), 300 mM NiSO4, SHE pH 7.4, weight ratio 0.2:1, 60° C., within 5 minutes) was “greater than 75%”, the “loading (in words)” value ([2]; pH 7.4) was “efficiently load” and the uptake into liposomes ([2]; pH 7.4) was 100%. The “plasma drug-to-lipid ratio 24 hours after intravenous administration (in words)” value [3] was “differing plasma drug-to-lipid ratios”.
